Results on one compound are retold here after PMC8545574, “Antioxidant, Anti-Inflammatory, and Antidiabetic Activities of Bioactive Compounds from the Fruits of Livistona chinensis Based on Network Pharmacology Prediction” (Oxidative Medicine and Cellular Longevity, 2021).

Test [1] relates to insulin-resistant HepG2 cells. Nature of the test: Glucose consumption by insulin-resistant HepG2 cells. It counts as cell-based, human. Particulars: insulin-resistant HepG2 cells. How it is done: HepG2 cells were cultivated in DMEM (without phenol red) containing 10% fetal bovine serum at 37°C in a humidified 5% CO2 atmosphere. An insulin-resistant cell model was established in accordance with a previous method, with some modifications. Cells were seeded in a 96-well plate with 1 × 10^4 cells per well. After incubation for 24 h, the medium was replaced with serum-free medium (without phenol red) containing 5 × 10^−6 mol/L insulin and incubated for 24 h. The cell culture medium was then replaced with the samples at different concentrations. The compounds were first dissolved in DMSO and subsequently diluted with medium containing 1% FBS to achieve different concentrations. The final concentration of DMSO was no more than 0.1%. At the end of the 24 h incubation, glucose in the medium was measured using the glucose oxidase-peroxidase method kit (Nanjing Jiancheng Biological Co., Ltd.). The amount of glucose consumption was calculated as follows: (glucose of the DMEM − glucose concentration of each well).

Test [2] concerns the target T1, PTP1B (Homo sapiens, UniProt P18031).
T1 sequence (P18031 1-321 limits assumed): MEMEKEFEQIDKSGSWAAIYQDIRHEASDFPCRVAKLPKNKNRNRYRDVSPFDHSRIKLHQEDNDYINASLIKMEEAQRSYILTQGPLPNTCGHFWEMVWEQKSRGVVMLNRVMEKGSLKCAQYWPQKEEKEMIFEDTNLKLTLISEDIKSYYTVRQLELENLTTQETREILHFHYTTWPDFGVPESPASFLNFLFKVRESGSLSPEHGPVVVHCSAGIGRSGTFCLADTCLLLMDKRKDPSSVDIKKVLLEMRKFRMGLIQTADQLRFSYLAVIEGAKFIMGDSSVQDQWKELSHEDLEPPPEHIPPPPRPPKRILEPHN
Nature of the test: Fluorescence quenching measurement of PTP1B. It counts as binding. Also on record: purchased Abcam (Shanghai) Trading Co., Ltd. ab51277. How it is done: 180 μL of the buffer with 10 μL of the PTP1B at the concentration used in the assays were added into the 96-well black plates followed by 10 μL different concentrations (0, 6.25, 9.37, 12.5, 18.75, 25, and 50 μM) of inhibitor. The excitation wavelength was set at 250 nm, and the fluorescence emission spectra were collected from 300-400 nm with an emission bandwidth of 2 nm. The quenching parameters such as the Stern-Volmer constant (KSV), binding constant (KA), and the number of binding sites (n) were determined by the formula [33]. (4) F0/F=1+KSVQf,logFo−F/F=logKA+nlogQf, where F0 and F are the fluorescence intensities in the absence and presence of a quencher and [Q]f is a concentration of compounds.

Test [3] concerns the target T1, PTP1B. Nature of the test: PTP1B inhibitory assay (p-NPP substrate).
Method: PTP1B (10 μg/mL stock solution) was dissolved in 10 mM citrate buffer (pH 6.0), 1 mM dithiothreitol (DTT), and 1 mM N, N, N′, N′-ethylenediaminetetraacetate (EDTA). 20.0 μL PTP1B stock solution and 60 μL citrate buffer were added to each well of a 96-well plastic plate.
The target of test [4] is α-Glucosidase (from Baker's yeast). Nature of the test: α-Glucosidase inhibitory assay (p-NPG substrate). Particulars: read-out: IC50 α-Glucosidase inhibitory effect; mean ± SD, n = 3.
Method: The extract, fractions, and compounds were dissolved in 5% DMSO and then diluted with phosphate buffer. Briefly, 80 μL PBS, 20 μL of varying concentrations of sample solutions, and 20 μL α-glucosidase solution (1.3 U/mL) were mixed and incubated in 96-well plates at 37°C for 5 min. The reaction started when 20 μL p-nitrophenyl-α-D-glucopyranoside (2.5 mM) was added to the plate. The reaction mixture was incubated for 15 min at 37°C, and then, 80 μL Na2CO3 (0.2 M) was added to stop the reaction.
Test [5] relates to LPS-stimulated NO release in RAW 264.7 cells. In words: Nitrite (Griess) assay of LPS-stimulated NO release. It counts as cell-based. To be noted: Mus musculus, RAW264.7, LPS (1 μg/mL)-stimulated RAW 264.7 cells; mean ± SD, n = 3; read-out: IC50 NO production anti-inflammatory effect. On the procedure:
The level of NO production was tested by measuring the nitrite level in the culture medium with the Griess method. Cells were seeded at a density of 2 × 10^4 cells per well in 96-well plates. […] A microplate reader was employed for the optical density measurement at 570 nm.

A short description of test [6]: DPPH free radical scavenging assay. To be noted: mean ± SD, n = 3. It counts as biochemical. On the procedure:
The DPPH free radical scavenging assay was performed according to a previously reported method. A series of different concentrations of the tested samples and the positive control ascorbic acid were mixed with freshly prepared DPPH (0.2 mM) in a 96-well microplate with a total volume of 150 μL. After leaving the mixture to react in the dark for 30 min, its absorbance was determined at 517 nm. All of the wells with only samples were set as blanks to obtain an absorbance value, which was subtracted from the test sample readings. The percentage inhibition (%) for each sample was calculated by the following formula: (1) Inhibition %=Absblank−Abssamples/Absblank×100%, where Absblank and Abssamples correspond to the absorbance units (at 517 nm) of DPPH solutions incubated in the absence and presence of the tested samples.
For orientation: The DPPH test is a chemical assay of radical scavenging.

The target in test [7] is T1, PTP1B. Nature of the test: PTP1B enzyme inhibition kinetic study (Lineweaver-Burk and Dixon plots). It counts as biochemical. Details: purchased Abcam (Shanghai) Trading Co., Ltd. ab51277. On the procedure:
Lineweaver−Burk double reciprocal plot and Dixon plot were used to study the kinetic behavior of active compounds against PTP1B and the corresponding inhibition constants (Ki values). […] The plate reader recorded the absorbance of the reaction mixture every 3 mins. The enzymatic velocity of the enzyme reaction was calculated based on the time − Δabs plot. The Lineweaver−Burk plot and Dixon plot were generated by GraphPad Prism 8 in order to determine the type of PTP1B inhibition and Ki.

Test [8] is described as follows: ABTS radical cation scavenging assay. It counts as biochemical. To be noted: mean ± SD, n = 3. On the procedure: The ABTS radical cation (ABTS·+) was prepared by reacting ABTS with potassium persulfate following the method previously described. The ABTS radical cation (ABTS·+) was prepared by mixing with 2.45 mM potassium persulfate and equal volumes of an ABTS solution (7 mM), and then, they were permitted to react in the darkness at room temperature for 12–16 h. Thereafter, the ABTS reagent was diluted with methyl alcohol until reaching an absorbance of 0.70 ± 0.02 units at 734 nm. In a 96-well microplate, ABTS reagent (190 μL in each well) and samples (10 μL in each well) were incubated at room temperature for 20 min. To determine the antioxidant capacity by the ABTS method, the experimental conditions and protocol were identical to those of the DPPH assay. The only difference was that the absorbance was measured at 734 nm.

For `COc1c(O)cc(O)c2c(=O)cc(-c3ccccc3)oc12` [Compound 6, wogonin], in test [1], the “effect on glucose uptake (in words)” value is recorded as “little effect”. The “K SV (Stern-Volmer constant)” value in test [2] worked out at 22000 L/mol. For the same compound, the “n (number of binding sites)” value in test [2] was found to be 1.12. Further, the Kd in test [2] (read-out: K A (binding constant) (converted)) is 76.9 µM. Besides, the IC50 was 22.2 ± 0.58 µM in test [3]; > 100 µM in test [4]; 49.4 ± 1.85 µM in test [5]; 99.36 ± 0.44 µM in test [6]; > 100 µM in test [8]. For the same compound, in test [7] (determined by Dixon plots), the affinity, expressed as Ki, was 4.18 µM. Also, the Inhibitory mode entry in test [7] (determined by Lineweaver-Burk plots) was “Mixed-type”.

Broadly, the IC50 is the concentration needed to halve the response being measured. By Ki is commonly meant the equilibrium dissociation constant of an inhibitor or competing ligand from its target. A low value points to higher affinity.
